Source: patent US10364245B2 (CHIESI FARMACEUTICI S.p.A., priority 2017, dated 2019)

What was measured:
[1] = biological target: T1, p38 alpha (Homo sapiens, UniProt Q16539); experiment: P38 alpha enzyme inhibition assay (Alphascreen kinase activity assay); type: biochemical; conditions: 100 pM p38 alpha, 2 hours preincubation at 25° C., 250 μM ATP, ATF-2 fusion protein; read-out: p38α inhibition
T1 construct: purchased Invitrogen PV3304
Procedure: P38 Alpha Enzyme Inhibition Assay
The inhibitory activity of compounds was determined using an Alphascreen® (Perkin Elmer) based kinase activity assay. Kinase reactions consisted of 25 mM HEPES pH 7.5, 10 mM MgCl2, 100 μM Na3VO4, 2 mM DTT, 0.05 mg/ml Tween 20, 100 pM p38 alpha (Invitrogen, PV3304), 1% DMSO and 0.3 μg/ml ATF-2 fusion protein (New England Biolabs, 9224). Compounds were incubated under these conditions for 2 hours, at 25° C., prior to the initiation of the kinase activity by the addition of the 250 μM ATP. Reaction volumes were 20 μL. After 1 hr at 25° C. reactions were stopped by the adding 10 μL of 25 mM HEPES pH 7.5 containing 62.5 mM EDTA, 0.05% Triton X-100, 10% BSA and 0.83 ng/uL anti-phospho-ATF2 antibody (Abcam, ab28812). Detection was performed by measuring luminescence following the addition of Alphascreen Donor beads (Perkin Elmer 6765300) and Protein A Alphascreen Acceptor beads (Perkin Elmer 6760137), both at a final concentration of 20 ug/ml. IC50 values were determined from concentration-response curves.

[2] = test system: Peripheral Blood Mononuclear Cells (PBMCs), TNFα release; experiment: LPS-stimulated PBMC TNFα release assay; type: cell-based; conditions: human PBMC, LPS (10 ng/ml), 18 h, compound 1 h before LPS; read-out: LPS-stimulated PBMC TNFα release inhibition
Procedure: LPS-Stimulated PBMC TNFα Release Assay
Peripheral Blood Mononuclear Cells (PBMCs) were isolated from healthy human volunteer blood using a standard density gradient centrifugation technique. Citrated blood was placed onto Histopaque™ and centrifuged. The PBMCs were removed from the density gradient interface and washed in phosphate buffered saline (PBS). The PBMCs were suspended in RPMI 1640 medium (without serum), dispensed into a 96-well plate and incubated at 37° C. for 3 h in a humidified incubator. After incubation, the medium was replaced (with medium containing 1% foetal bovine serum) and the plate incubated at 37° C., for 1 h, in the presence of test compound or the appropriate vehicle. LPS (10 ng/ml), or an appropriate vehicle control, was then added to the cells and the plate returned to the incubator for 18 h. Cell-free supernatants were removed and assayed for TNFα levels using MSD plates on the Sector Imager 6000 (MesoScale).
A dose response curve to each test compound was performed and the effect of compound in each experiment was expressed as a percentage inhibition of the control TNFα release. Dose response curves were plotted and compound potency (IC50) was determined. Compounds were tested in at least three separate experiments.

T1 sequence (Q16539 whole entry, the tested form may be a part): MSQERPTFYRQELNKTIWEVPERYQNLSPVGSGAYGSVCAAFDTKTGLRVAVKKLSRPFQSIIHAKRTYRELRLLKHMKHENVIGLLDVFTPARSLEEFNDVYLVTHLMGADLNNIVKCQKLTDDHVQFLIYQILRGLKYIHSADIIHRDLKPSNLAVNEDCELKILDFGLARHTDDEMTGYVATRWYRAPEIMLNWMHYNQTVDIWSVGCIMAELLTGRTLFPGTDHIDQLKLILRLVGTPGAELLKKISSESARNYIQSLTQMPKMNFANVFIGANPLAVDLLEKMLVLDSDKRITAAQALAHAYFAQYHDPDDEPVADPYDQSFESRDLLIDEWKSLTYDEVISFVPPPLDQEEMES

Structure (SMILES)	IC50 [1] [nM]	IC50 [2] [nM]
CN(C)CCNC(=O)c1nc(NC(=O)N[C@H]2CC[C@@H](Oc3ccc4nnc(C(C)(C)C)n4c3)c3ccccc32)cc(C(C)(C)C)n1 [Example 1, 4-(tert-Butyl)-6-(3-((1S,4R)-4-((3-(tert-butyl)-[1,2,4]triazolo[4,3-a]pyridin-6-yl)oxy)-1,2,3,4-tetrahydronaphthalen-1-yl)ureido)-N-(2-(dimethylamino)ethyl)-pyrimidine-2-carboxamide]	< 1	1 to 5
CCC(C)(C)c1nnc2ccc(O[C@@H]3CC[C@H](NC(=O)Nc4cc(C(C)(C)C)nc(C(=O)NCCN(C)CCO)n4)c4ccccc43)cn12 [Example 2, 4-(tert-Butyl)-N-(2-((2-hydroxyethyl)(methyl)amino)ethyl)-6-(3-((1S,4R)-4-((3-(tert-pentyl)-[1,2,4]triazolo[4,3-a]pyridin-6-yl)oxy)-1,2,3,4-tetrahydronaphthalen-1-yl)ureido)pyrimidine-2-carboxamide]	< 1	1 to 5
CCC(C)(C)c1nnc2ccc(O[C@@H]3CC[C@H](NC(=O)Nc4cc(C(C)(C)C)nc(C(=O)NCCN(C)C)n4)c4ccccc43)cn12 [Example 3, 4-(tert-Butyl)-N-(2-(dimethylamino)ethyl)-6-(3-((1S,4R)-4-((3-(tert-pentyl)-[1,2,4]triazolo[4,3-a]pyridin-6-yl)oxy)-1,2,3,4-tetrahydronaphthalen-1-yl)ureido)pyrimidine-2-carboxamide]	< 1	1 to 5
CCC(C)(C)c1nnc2ccc(O[C@@H]3CC[C@H](NC(=O)Nc4cc(C(C)(C)C)nc(C(=O)NCCN(C)CCOC)n4)c4ccccc43)cn12 [Example 4]	< 1	1 to 5
CCC(CC)c1nnc2ccc(O[C@@H]3CC[C@H](NC(=O)Nc4cc(C(C)(C)C)nc(C(=O)NCCN(C)C)n4)c4ccccc43)cn12 [Example 5, 4-(tert-Butyl)-N-(2-(dimethylamino)ethyl)-6-(3-((1S,4R)-4-((3-(pentan-3-yl)-[1,2,4]triazolo[4,3-a]pyridin-6-yl)oxy)-1,2,3,4-tetrahydronaphthalen-1-yl)ureido)pyrimidine-2-carboxamide]	< 1	1 to 5
CCC(CC)c1nnc2ccc(O[C@@H]3CC[C@H](NC(=O)Nc4cc(C(C)(C)C)nc(C(=O)NCCN5CC(OC)C5)n4)c4ccccc43)cn12 [Example 6, 4-(tert-Butyl)-N-(2-(3-methoxyazetidin-1-yl)ethyl)-6-(3-((1S,4R)-4-((3-(pentan-3-yl)-[1,2,4]triazolo[4,3-a]pyridin-6-yl)oxy)-1,2,3,4-tetrahydronaphthalen-1-yl)ureido)pyrimidine-2-carboxamide]	< 1	1 to 5
COCC(C)(C)c1nnc2ccc(O[C@@H]3CC[C@H](NC(=O)Nc4cc(C(C)(C)C)nc(C(=O)NCC(C)(C)N(C)C)n4)c4ccccc43)cn12 [Example 7, 4-(tert-Butyl)-N-(2-(dimethylamino)-2-methylpropyl)-6-(3-((1S,4R)-4-((3-(1-methoxy-2-methylpropan-2-yl)-[1,2,4]triazolo[4,3-a]pyridin-6-yl)oxy)-1,2,3,4-tetrahydronaphthalen-1-yl)ureido)pyrimidine-2-carboxamide]	< 1	1 to 5
CC[C@H](C)c1nnc2ccc(O[C@@H]3CC[C@H](NC(=O)Nc4cc(C(C)(C)C)nc(C(=O)NCC(C)(C)N(C)C)n4)c4ccccc43)cn12 [Example 8, 4-(tert-Butyl)-6-(3-((1S,4R)-4-((3-((S)-sec-butyl)-[1,2,4]triazolo[4,3-a]pyridin-6-yl)oxy)-1,2,3,4-tetrahydronaphthalen-1-yl)ureido)-N-(2-(dimethylamino)-2-methylpropyl)pyrimidine-2-carboxamide]	< 1	1 to 5
CC(C)(C)c1cc(NC(=O)N[C@H]2CC[C@@H](Oc3ccc4nnc(C(C)(C)C)n4c3)c3ccccc32)cc(C(=O)NCCN2CCC(O)CC2)n1 [Example 9, 6-(tert-Butyl)-4-(3-((1S,4R)-4-((3-(tert-butyl)-[1,2,4]triazolo[4,3-a]pyridin-6-yl)oxy]-1,2,3,4-tetrahydronaphthalen-1-yl}ureido)-N-(2-(4-hydroxypiperidin-1-yl)ethyl)picolinamide]	< 1	1 to 5
CCN(CC)c1nnc2ccc(O[C@@H]3CC[C@H](NC(=O)Nc4cc(C(=O)NCCN(C)C)nc(C(C)(C)C)c4)c4ccccc43)cn12 [Example 10, 6-(tert-Butyl)-4-(3-((1S,4R)-4-((3-(diethylamino)-[1,2,4]triazolo[4,3-a]pyridin-6-yl)oxy)-1,2,3,4-tetrahydronaphthalen-1-yl)ureido)-N-(2-(dimethylamino)ethyl)picolinamide]	< 1	1 to 5
CCN(C)CCNC(=O)c1nc(NC(=O)N[C@H]2CC[C@@H](Oc3ccc4nnc(N(CC)CC)n4c3)c3ccccc32)cc(C(C)(C)C)n1 [Example 11, 4-(tert-Butyl)-6-(3-((1S,4R)-4-((3-(diethylamino)-[1,2,4]triazolo[4,3-a]pyridin-6-yl)oxy)-1,2,3,4-tetrahydronaphthalen-1-yl)ureido)-N-(2-(ethyl(methyl)amino)ethyl)pyrimidine-2-carboxamide]	< 1	1 to 5
COC(C)(C)c1nnc2ccc(O[C@@H]3CC[C@H](NC(=O)Nc4cc(C(C)(C)C)nc(C(=O)NCCN5CCCOCC5)n4)c4ccccc43)cn12 [Example 12, N-(2-(1,4-Oxazepan-4-yl)ethyl)-4-(tert-butyl)-6-(3-((1S,4R)-4-((3-(2-methoxypropan-2-yl)-[1,2,4]triazolo[4,3-a]pyridin-6-yl)oxy)-1,2,3,4-tetrahydronaphthalen-1-yl)ureido)pyrimidine-2-carboxamide]	1 to 10	1 to 5
COC(C)(C)c1nnc2ccc(O[C@@H]3CC[C@H](NC(=O)Nc4cc(C(C)(C)C)nc(CO)n4)c4ccccc43)cn12 [Example 13, 1-(6-(tert-Butyl)-2-(hydroxymethyl)pyrimidin-4-yl)-3-((1S,4R)-4-((3-(2-methoxypropan-2-yl)-[1,2,4]triazolo[4,3-a]pyridine-6-yl)oxy)-1,2,3,4-tetrahydronaphthalene-1-yl)urea]	< 1	1 to 5
CN1CCC[C@@]1(C)c1nnc2ccc(O[C@@H]3CC[C@H](NC(=O)Nc4cc(C(C)(C)C)ncn4)c4ccccc43)cn12 [Example 14, 1-(6-(tert-Butyl)pyrimidin-4-yl)-3-((1S,4R)-4-((3-((S)-1,2-dimethylpyrrolidin-2-yl)-[1,2,4]triazolo[4,3-a]pyridin-6-yl)oxy)-1,2,3,4-tetrahydronaphthalen-1-yl)urea]	< 1	< 1
C[C@H]1CCCCN1c1nnc2ccc(O[C@@H]3CC[C@H](NC(=O)Nc4cc(C(C)(C)C)nc(CN(C)C)n4)c4ccccc43)cn12 [Example 15, 1-(6-(tert-Butyl)-2-((dimethylamino)methyl)pyrimidin-4-yl)-3-((1S,4R)-4-((3-((S)-2-methylpiperidin-1-yl)-[1,2,4]triazolo[4,3-a]pyridin-6-yl)oxy)-1,2,3,4-tetrahydronaphthalen-1-yl)urea]	< 1	> 5
CN1CCN(c2nc(NC(=O)N[C@H]3CC[C@@H](Oc4ccc5nnc([C@]6(C)CCCN6C)n5c4)c4ccccc43)cc(C(C)(C)C)n2)CC1 [Example 31, 1-(6-(tert-Butyl)-2-(4-methylpiperazin-1-yl)pyrimidin-4-yl)-3-((1S,4R)-4-((3-((S)-1,2-dimethylpyrrolidin-2-yl)-[1,2,4]triazolo[4,3-a]pyridin-6-yl)oxy)-1,2,3,4-tetrahydronaphthalen-1-yl)urea]		> 5
COC(C)(C)c1nnc2ccc(O[C@@H]3CC[C@H](NC(=O)Nc4cc(C(=O)NCC(C)(C)N(C)C)nc(C(C)(C)C)c4)c4ccccc43)cn12 [Example 194, 6-(tert-butyl)-N-(2-(dimethylamino)-2-methylpropyl)-4-(3-((1S,4R)-4-((3-(2-methoxypropan-2-yl)-[1,2,4]triazolo[4,3-a]pyridin-6-yl)oxy)-1,2,3,4-tetrahydronaphthalen-1-yl)ureido)picolinamide]	1 to 10	
COC1CCN(CCNC(=O)c2cc(NC(=O)N[C@H]3CC[C@@H](Oc4ccc5nnc(C(C)(C)C)n5c4)c4ccccc43)cc(C(C)(C)C)n2)CC1 [Example 203, 6-(tert-butyl)-4-(3-((1S,4R)-4-((3-(tert-butyl)-[1,2,4]triazolo[4,3-a]pyridin-6-yl)oxy)-1,2,3,4-tetrahydronaphthalen-1-yl)ureido)-N-(2-(4-methoxypiperidin-1-yl)ethyl)picolinamide]	1 to 10	
